Data taken from the CheMixHub viscosity set.

Assay: xn = mol fraction of the nth substance listed

C1=Cc2cccc3cccc1c23 + CO
viscosity [mPa·s], 101 kPa
Conditions	298.15 K	303.15 K	308.15 K	313.15 K	318.15 K
x1 = 0.00471	0.5715	0.5301	0.494	0.4598	0.436
x1 = 0.00731	–	0.5362	0.5036	0.4714	0.4405

CC(=O)[O-].C[N+]1(CC2CO2)CCCC1=O (stereo not given) + CO
viscosity [mPa·s], 101 kPa
Conditions	293.15 K	298.15 K	303.15 K	308.15 K	313.15 K
x1 = 0.036	0.71	0.66	0.62	0.57	0.52
x1 = 0.0744	0.92	0.85	0.78	0.72	0.73
x1 = 0.1088	1.12	1.03	0.94	0.87	0.8
x1 = 0.2024	1.69	1.52	1.38	1.26	1.15
x1 = 0.3033	2.35	2.09	1.87	1.69	1.53
x1 = 0.4042	3.02	2.66	2.36	2.1	1.89
x1 = 0.504	3.68	3.22	2.83	2.51	2.24
x1 = 0.6015	4.28	3.71	3.25	2.86	2.54
x1 = 0.7036	4.91	4.23	3.68	3.23	2.85
x1 = 0.8051	5.51	4.72	4.09	3.57	3.14
x1 = 0.9086	6.14	5.21	4.49	3.9	3.42

CCCCO + CO
101.33 kPa
Conditions	viscosity [mPa·s]
298.15 K, x2 = 0.1362	2.2
298.15 K, x2 = 0.2224	1.966
298.15 K, x2 = 0.302	1.768
298.15 K, x2 = 0.409	1.528
298.15 K, x2 = 0.5154	1.312
298.15 K, x2 = 0.6105	1.139
298.15 K, x2 = 0.693	0.999
298.15 K, x2 = 0.8012	0.833
298.15 K, x2 = 0.9004	0.69
303.15 K, x2 = 0.2846	1.602
303.15 K, x2 = 0.3614	1.45
303.15 K, x2 = 0.4291	1.311
303.15 K, x2 = 0.492	1.191
303.15 K, x2 = 0.6007	1.038
303.15 K, x2 = 0.6929	0.8879
303.15 K, x2 = 0.7719	0.7812
303.15 K, x2 = 0.8404	0.6887
303.15 K, x2 = 0.9003	0.6154

CCCCCCCC[N+](C)(CCCCCCCC)CCCCCCCC.[Cl-] + COC(=O)OC
Conditions	viscosity [mPa·s]
298.15 K, 101 kPa, x1 = 0.65	534.7

CCCCOCCOCCOCCCC + COC(=O)OC
viscosity [mPa·s], 101.3 kPa
Conditions	298.15 K	308.15 K	318.15 K
x1 = 0.0176	0.616	0.546	0.488
x1 = 0.0289	0.635	0.562	0.498
x1 = 0.0543	0.678	0.599	0.523
x1 = 0.0894	0.743	0.65	0.56
x1 = 0.1574	0.862	0.747	0.634
x1 = 0.2414	1.012	0.867	0.726
x1 = 0.3274	1.169	0.991	0.82
x1 = 0.3389	1.189	1.005	0.83
x1 = 0.44	1.367	1.131	0.947
x1 = 0.5417	1.518	1.266	1.043
x1 = 0.636	1.653	1.377	1.125
x1 = 0.7193	1.745	1.451	1.182
x1 = 0.8605	1.934	1.606	1.289
x1 = 0.9421	2.047	1.677	1.351

C=C1CCC2CC1C2(C)C (stereo not given) + COC(C)(C)C
298.15 K, 101.33 kPa
Conditions	viscosity [mPa·s]
x2 = 0.0493	1.485
x2 = 0.1076	1.364
x2 = 0.2248	1.142
x2 = 0.354	0.93
x2 = 0.439	0.8092
x2 = 0.5239	0.7038
x2 = 0.6457	0.5826
x2 = 0.7594	0.4855
x2 = 0.8663	0.41
x2 = 0.9007	0.3873
x2 = 0.9651	0.3495

Fc1c(F)c(F)c(F)c(F)c1F + CS(C)=O
viscosity [mPa·s], 101 kPa
Conditions	x2 = 0.1003	x2 = 0.2029	x2 = 0.2999	x2 = 0.4	x2 = 0.5001	x2 = 0.5999	x2 = 0.7	x2 = 0.8004	x2 = 0.9
293.15 K	0.991	1.058	1.143	1.246	1.365	1.509	1.661	1.806	1.974
303.15 K	0.833	0.891	0.961	1.05	1.144	1.267	1.386	1.513	1.641
313.15 K	0.703	0.758	0.822	0.904	0.976	1.071	1.171	1.276	1.385
323.15 K	0.62	0.659	0.713	0.775	0.839	0.918	0.993	1.077	1.167

OC[C@H]1O[C@@](CO)(O[C@H]2O[C@H](CO)[C@@H](O)[C@H](O)[C@H]2O)[C@@H](O)[C@@H]1O + CS(C)=O
viscosity [mPa·s], 101 kPa
Conditions	298.15 K	308.15 K	318.15 K
x1 = 0.006451	2.4	1.962	1.63
x1 = 0.01289	2.883	2.319	1.908
x1 = 0.01959	3.523	2.793	2.266
x1 = 0.0336	5.532	4.214	3.309
x1 = 0.04801	9.087	6.615	4.999
x1 = 0.05582	12.08	8.541	6.292
x1 = 0.06395	16.4	11.28	8.055
x1 = 0.07246	22.45	14.86	10.39
x1 = 0.08036	30.82	19.69	13.36
x1 = 0.09752	61.59	36.46	23.02
x1 = 0.1069	90.84	51.59	31.4
x1 = 0.117	139.8	75.48	43.98
x1 = 0.1263	211.4	109.3	61.19

O=C(O)CC(O)C(=O)O (stereo not given) + C[C@H](N)C(=O)O
101 kPa, x2 = 0.5
Conditions	viscosity [mPa·s]
298.15 K	475400
318.15 K	32390

O=C(O)CC(O)C(=O)O (stereo not given) + C[N+](C)(C)CC(=O)[O-]
Conditions	viscosity [mPa·s]
318.15 K, 101 kPa, x2 = 0.5	42170

C[C@H](O)C(=O)O + C[N+](C)(C)CCO.[Cl-]
101 kPa, x2 = 0.3333
Conditions	viscosity [mPa·s]
303.15 K	374.3
313.15 K	187

O=C(O)CC(O)C(=O)O (stereo not given) + C[N+](C)(C)CCO.[Cl-]
Conditions	viscosity [mPa·s]
293.15 K, 101 kPa, x1 = 0.5	24490
293.2 K, 101.3 kPa, x2 = 0.602	8896
293.2 K, 101.3 kPa, x2 = 0.666	3341
298 K, 101.3 kPa, x2 = 0.5	2082
298.15 K, 101 kPa, x1 = 0.5	22090
298.15 K, 101.33 kPa, x1 = 0.7	530.2
303.15 K, 101 kPa, x1 = 0.5	13390
303.2 K, 101.3 kPa, x2 = 0.602	5432
303.2 K, 101.3 kPa, x2 = 0.666	2810
308.15 K, 101 kPa, x1 = 0.5	8995
313.15 K, 101 kPa, x1 = 0.5	5859
313.2 K, 101.3 kPa, x2 = 0.505	6421
313.2 K, 101.3 kPa, x2 = 0.602	2827
313.2 K, 101.3 kPa, x2 = 0.666	1676
318.15 K, 101 kPa, x1 = 0.5	4121
323 K, 101.3 kPa, x2 = 0.5	610
323.15 K, 101 kPa, x1 = 0.5	2924

Oc1cccc(O)c1O + C[N+](C)(C)CCO.[Cl-]
viscosity [mPa·s], 101.3 kPa
Conditions	293.15 K	298.15 K	303.15 K	308.15 K	313.15 K	318.15 K	323.15 K
x2 = 0.333	6400	4850	3200	2000	1250	800	600
x2 = 0.5	6100	3750	2500	1500	1000	750	500

C=C1CCC2CC1C2(C)C (stereo not given) + Cc1cc(C)cc(C)c1
viscosity [mPa·s], 101 kPa
Conditions	x2 = 0.2198	x2 = 0.3257	x2 = 0.429	x2 = 0.5299	x2 = 0.6283	x2 = 0.7245	x2 = 0.8185	x2 = 0.9103
303.15 K	1.254	1.108	0.981	0.871	0.799	0.743	0.696	0.661
308.5 K	1.167	1.032	0.915	0.819	0.749	0.695	0.653	0.622
313.15 K	1.082	0.959	0.854	0.768	0.698	0.645	0.606	0.576

C=C1CCC2CC1C2(C)C (stereo not given) + Cc1cccc(C)c1
viscosity [mPa·s], 101 kPa
Conditions	x2 = 0.2415	x2 = 0.3531	x2 = 0.4592	x2 = 0.5602	x2 = 0.6564	x2 = 0.7482	x2 = 0.8359	x2 = 0.9198
303.15 K	1.225	1.049	0.915	0.799	0.737	0.682	0.637	0.602
308.5 K	1.137	0.98	0.85	0.748	0.685	0.639	0.6	0.568
313.15 K	1.05	0.91	0.787	0.697	0.637	0.593	0.563	0.542
